How the values were obtained:
red blood cells (RBC) [1] = assay: RBC storage in AS-3 with Ado and/or S1P, LC-MS metabolomics of cells and supernatants; type: cell-based; details: for amount of hypoxanthine in RBC and supernatants / 2,3-DPG levels / ATP production / oxidized glutathione levels / reduced glutathione levels: RBC-AS-3 stored at 4° C.; for amount of hypoxanthine in RBC and supernatants: at least up to a concentration less than 100 μM, at which point Ado becomes a substrate for hypoxanthine production, FIG. 5; for 2,3-DPG levels: first two weeks of storage, FIG. 2; for ATP production: first week of storage, FIG. 3; for oxidized glutathione levels / reduced glutathione levels: supplemented conditions, FIG. 4; for glycolytic activity as measured by the lactate-to-glucose ratio: RBC-AS-3 suspension stored at 4° C., Ado 0.1-100 μM or S1P 1-10 μM or both, versus unsupplemented storage, FIG. 1
Protocol: RBC Storage: To ensure sterility, all storage conditions were set up and subsequently sampled in a biosafety cabinet. The RBC-AS-3 suspension was carefully removed from the bag into 3 ml aliquots inside 15 ml conical tubes. Stock concentrations (formulated in house-made AS-3) of ^13C5-Ado or d7-S1P were diluted to final concentrations of 0.1, 1, 10, and 100 μM for Ado or 1, 5, and 10 μM for S1P. Also included was a storage condition consisting of 10 Ado+5 μM S1P. […] The tubes were gently mixed and placed at 4° C. for storage. On days 2, 8, 11, 15, 22, 29, and 43, the tubes were placed back in a biosafety cabinet and 300 μl were sampled. The tubes were placed back at 4° C., and the samples were centrifuged for 10 minutes at 1500 g, 4° C. Supernatants were separated from cells and frozen until analysis (1st analysis after day 22 sampling). LC-MS Metabolomics: Metabolomics analyses were performed as previously described (Nemkov et al. (2015) Amino Acids doi:10.1007/s00726-015-2019-9; Nemkov et al. (2017) Rapid Commun. Mass Spectrom. 31, 663-673). Briefly, samples were placed on ice and diluted with 9 volumes of methanol:acetonitrile:water (5:3:2, v:v) for RBC, or with 24 volumes of methanol:acetonitrile:water (5:3:2, v:v) for supernatants. Suspensions were vortexed continuously for 30 min at 4° C. Insoluble material was removed by centrifugation at 18,000 g for 10 min at 4° C. and supernatants were isolated for metabolomics analysis by UHPLC-MS. The analytical platform employed a Vanquish UHPLC system (Thermo Fisher Scientific, San Jose, Calif., USA) coupled online to a Q Exactive mass spectrometer (Thermo Fisher Scientific, San Jose, Calif., USA). Samples were resolved over a Kinetex C18 column, 2.1×150 mm, 1.7 μm particle size (Phenomenex, Torrance, Calif., USA) equipped with a guard column (SecurityGuard™ Ultracartridge—UHPLC C18 for 2.1 mm ID Columns—AJO-8782—Phenomenex, Torrance, Calif., USA) using an aqueous phase (A) of water and 0.1% formic acid and a mobile phase (B) of acetonitrile and 0.1% formic acid for positive ion polarity mode, or an aqueous phase (A) of 5% acetonitrile and 1 mM ammonium acetate in water and a mobile phase (B) of 95% acetonitrile and 1 mM ammonium acetate in water for negative ion polarity mode. Samples were eluted from the column using a gradient from 5% to 95% B over 1.6 minutes, followed by an isocratic hold at 95% B for 1.65 minutes, flowed at 450 μl/min and 40° C. The Q Exactive mass spectrometer (Thermo Fisher Scientific, San Jose, Calif., USA) was operated independently in positive or negative ion mode, scanning in Full MS mode (2 μscans) from 60 to 900 m/z at 70,000 resolution, with 4 kV spray voltage, 15 shealth gas, 5 auxiliary gas. Calibration was performed prior to analysis using the Pierce™ Positive and Negative Ion Calibration Solutions (Thermo Fisher Scientific). Acquired data was then converted from .raw to .mzXML file format using Mass Matrix (Cleveland, Ohio, USA). Samples were analyzed in randomized order with a technical mixture injected after every 15 samples to qualify instrument performance. Metabolite assignments, isotopologue distributions, and correction for expected natural abundances of deuterium, ^13C, and ^15N isotopes were performed using MAVEN (Princeton, N.J., USA). The Q Exactive mass spectrometer (Thermo Fisher Scientific, San Jose, Calif., USA) was operated independently in positive or negative ion mode, scanning in Full MS mode (2 μscans) from 60 to 900 m/z at 70,000 resolution, with 4 kV spray voltage, 15 shealth gas, 5 auxiliary gas. Calibration was performed prior to analysis using the Pierce™ Positive and Negative Ion Calibration Solutions (Thermo Fisher Scientific). Acquired data was then converted from .raw to .mzXML file format using Mass Matrix (Cleveland, Ohio, USA). […] Importantly, the use of a standard processed blood unit is an improvement over previous experiments as this material directly represents a realistic storage strategy.

red blood cells (RBC) [2] = assay: Storage hemolysis: phosphate-conjugated carbohydrates and adenylates in the supernatant fraction of stored RBCs; type: cell-based; details: RBC-AS-3 stored at 4° C.; over storage duration; FIG. 6
Protocol: RBC Storage: To ensure sterility, all storage conditions were set up and subsequently sampled in a biosafety cabinet. The RBC-AS-3 suspension was carefully removed from the bag into 3 ml aliquots inside 15 ml conical tubes. Stock concentrations (formulated in house-made AS-3) of ^13C5-Ado or d7-S1P were diluted to final concentrations of 0.1, 1, 10, and 100 μM for Ado or 1, 5, and 10 μM for S1P. Also included was a storage condition consisting of 10 Ado+5 μM S1P. […] The tubes were gently mixed and placed at 4° C. for storage. On days 2, 8, 11, 15, 22, 29, and 43, the tubes were placed back in a biosafety cabinet and 300 μl were sampled. The tubes were placed back at 4° C., and the samples were centrifuged for 10 minutes at 1500 g, 4° C. Supernatants were separated from cells and frozen until analysis (1st analysis after day 22 sampling). LC-MS Metabolomics: Metabolomics analyses were performed as previously described (Nemkov et al. (2015) Amino Acids doi:10.1007/s00726-015-2019-9; Nemkov et al. (2017) Rapid Commun. Mass Spectrom. 31, 663-673). Briefly, samples were placed on ice and diluted with 9 volumes of methanol:acetonitrile:water (5:3:2, v:v) for RBC, or with 24 volumes of methanol:acetonitrile:water (5:3:2, v:v) for supernatants. […] Samples were analyzed in randomized order with a technical mixture injected after every 15 samples to qualify instrument performance. […]

## Nc1ncnc2c1ncn2[C@@H]1O[C@H](CO)[C@@H](O)[C@H]1O [Ado, adenosine]
Red blood cells (RBC) [1]
  amount of hypoxanthine in RBC and supernatants: markedly decreased
  2,3-DPG levels: higher 2,3-DPG levels through the first two weeks of storage
  ATP production: improved ATP production through the first week of storage
  oxidized glutathione levels: lower
  reduced glutathione levels: increased
  glycolytic activity as measured by the lactate-to-glucose ratio: higher glycolytic activity
Red blood cells (RBC) [2]
  levels of phosphate-conjugated carbohydrates and adenylates in supernatants (indicative of hemolysis): significantly lower

## CCCCCCCCCCCCC/C=C/[C@@H](O)[C@@H](N)COP(=O)(O)O [S1P, sphingosine 1-phosphate]
Red blood cells (RBC) [1]
  amount of hypoxanthine in RBC and supernatants: markedly decreased
  2,3-DPG levels: higher 2,3-DPG levels through the first two weeks of storage
  ATP production: improved ATP production through the first week of storage
  oxidized glutathione levels: lower
  reduced glutathione levels: increased
  glycolytic activity as measured by the lactate-to-glucose ratio: higher glycolytic activity
Red blood cells (RBC) [2]
  levels of phosphate-conjugated carbohydrates and adenylates in supernatants (indicative of hemolysis): significantly lower
